From patent publication US8722849B2, “Polypeptides” (Novo Nordisk A/S, priority 2011, dated 2014)
In brackets after ≈: the same amount, converted by molar mass. Like-named read-outs stand apart in the source and are kept apart here. Starred links: 1 amine or outer side, 2 acyl side, 3 side chain; linkers in the order of their positions; H or OH if unused. Positions of bridges follow the written chain, without caps; N, C: chain ends. Residues, ends and D or L forms follow the SMILES beside them. *: point of attachment. C20 diacid = O=C(O)CCCCCCCCCCCCCCCCCCC(=O)*; γGlu = O=C(O)[C@H](CCC(=O)[*:2])N[*:1]

Tests used:
[1] = biological target: T1, human calcitonin receptor (Homo sapiens, UniProt P30988); test: Assay (II)a functional CRE-luciferase assay, human calcitonin receptor; type: cell-based; conditions: Table 7; human calcitonin (CTa) receptor
T1 construct: expressed in transfected cells; host or cells: BHK570
T1 sequence (P30988 25-474): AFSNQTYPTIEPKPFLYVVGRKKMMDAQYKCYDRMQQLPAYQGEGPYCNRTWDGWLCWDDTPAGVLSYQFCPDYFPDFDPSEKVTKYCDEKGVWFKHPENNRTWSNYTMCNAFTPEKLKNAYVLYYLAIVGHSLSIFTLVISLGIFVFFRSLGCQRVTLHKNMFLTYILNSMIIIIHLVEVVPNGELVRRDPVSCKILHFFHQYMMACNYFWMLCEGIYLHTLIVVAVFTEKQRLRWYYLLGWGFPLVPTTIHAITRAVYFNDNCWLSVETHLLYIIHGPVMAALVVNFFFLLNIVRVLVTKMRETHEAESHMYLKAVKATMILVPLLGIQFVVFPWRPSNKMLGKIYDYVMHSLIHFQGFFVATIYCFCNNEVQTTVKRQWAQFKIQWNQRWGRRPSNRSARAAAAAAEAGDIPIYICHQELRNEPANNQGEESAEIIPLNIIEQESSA

[2] = Assay (III) ThT fibrillation assay for physical stability; type: physicochemical
Summary of the method: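 Freshly prepared formulations, pH-adjusted, with 1 μM ThT; four or eight replicates incubated at 37 °C under 960 rpm orbital shaking. Fluorescence (ex 444/em 485 nm) read every 20 min; […]. Peptide concentration measured by RP-HPLC before and after the run.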

[3] = Assay (IV) determination of solubility; type: physicochemical
Summary of the method: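 Stock ~500 nmol/ml in water; 1:1 with 100 mM buffer, pH 3.0–8.0 (glycylglycine ≤5.0, bistrispropane ≥6.0); 18 h RT; spin; HPLC quantitation of soluble polypeptide.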

[4] = biological target: T2, human amylin receptor (amylin 3(a) receptor: human calcitonin receptor + RAMP-3) (Homo sapiens, UniProt O60896+P30988); test: Assay (II)a functional CRE-luciferase assay, human amylin receptor; type: cell-based; conditions: Table 2; BHK amylin 3(a)-receptor/CRE-luc cells
T2 construct: expressed in transfected cells; host or cells: BHK570
T2 sequence (P30988 25-474): T1 sequence (P30988 25-474)
T2 sequence (O60896 24-148 partner): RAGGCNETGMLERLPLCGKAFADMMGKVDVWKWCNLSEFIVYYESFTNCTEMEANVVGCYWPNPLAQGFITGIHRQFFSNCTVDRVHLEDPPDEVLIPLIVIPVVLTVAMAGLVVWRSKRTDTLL

[5] = bistrispropane buffer, pH 6, pH 6.0, read-out: Solubility pH 6.0
[6] = bistrispropane buffer, pH 6.5, pH 6.5, read-out: Solubility pH 6.5
[7] = bistrispropane buffer, pH 7, pH 7.0, 18 hours at room temperature, Table 3, read-out: Solubility pH 7.0
[8] = bistrispropane buffer, pH 7, pH 7.0, read-out: Solubility pH 7.0
[9] = bistrispropane buffer, pH 7.5, pH 7.5, read-out: Solubility pH 7.5
[10] = bistrispropane buffer, pH 8, pH 8.0, read-out: Solubility pH 8.0
[11] = glycylglycine buffer, pH 3, pH 3.0, read-out: Solubility pH 3.0
[12] = glycylglycine buffer, pH 4, pH 4.0, 18 hours at room temperature, Table 2, read-out: Solubility pH 4.0
[13] = glycylglycine buffer, pH 4, pH 4.0, read-out: Solubility pH 4.0
[14] = glycylglycine buffer, pH 5, pH 5.0, read-out: Solubility pH 5.0

EC50 [1] [nM] | ThT pH 4.0 lag time (h) ([2]; ThT fibrillation assay) | solubility at 18 h [3, 5] [µM] | solubility at 18 h [3, 6] [µM] | solubility at 18 h [3, 7] [µM] | solubility at 18 h [3, 8] [µM] | solubility at 18 h [3, 9] [µM] | solubility at 18 h [3, 10] [µM] | solubility at 18 h [3, 11] [µM] | solubility at 18 h [3, 12] [µM] | solubility at 18 h [3, 13] [µM] | solubility at 18 h [3, 14] [µM] | EC50 [4] [nM] | ThT pH 4.0 lag time ([2]; Table 8) [h] | ThT pH 4.0 lag time ([2]; Table 9) [h] | ThT pH 4.0 lag time ([2]; ThT fibrillation assay) [h] | solubility at 18 h ([3]; bistrispropane buffer, pH 7, pH 7.0, Table 8, read-out: Solubility pH 7.0) [µM] | solubility at 18 h ([3]; bistrispropane buffer, pH 7, pH 7.0, Table 9, read-out: Solubility pH 7.0) [µM] | solubility at 18 h ([3]; bistrispropane buffer, pH 7.5, pH 7.5, Table 9, read-out: Solubility pH 7.5) [µM] | Compound
0.184 | 2.7 | > 200 | > 200 | > 200 | > 200 | > 200 | > 200 | > 200 | > 200 | > 200 | > 200 | 0.119 |  |  |  |  |  |  | CC[C@H](C)[C@H](NC(=O)[C@@H]1CCCN1C(=O)CNC(=O)[C@H](Cc1ccccc1)NC(=O)[C@H](CC(N)=O)NC(=O)[C@H](CC(N)=O)NC(=O)[C@H](CO)NC(=O)[C@H](CO)NC(=O)[C@H](Cc1c[nH]cn1)NC(=O)[C@H](Cc1c[nH]cn1)NC(=O)[C@H](CC(C)C)NC(=O)[C@H](Cc1ccccc1)NC(=O)[C@H](CCC(=O)O)NC(=O)[C@H](C)NC(=O)[C@H](CC(C)C)NC(=O)[C@H](CCCNC(=N)N)NC(=O)[C@H](CCC(N)=O)NC(=O)[C@@H](NC(=O)[C@H](C)NC(=O)[C@@H]1CSSC[C@H](NC(=O)[C@H](CCCNC(=N)N)NC(=O)[C@H](CCC(=O)O)NC(=O)CC[C@H](NC(=O)CCCCCCCCCCCCCCCCCCC(=O)O)C(=O)O)C(=O)N[C@@H](CC(N)=O)C(=O)N[C@@H]([C@@H](C)O)C(=O)N[C@@H](C)C(=O)N[C@@H]([C@@H](C)O)C(=O)N1)[C@@H](C)O)C(=O)N[C@@H](CC(C)C)C(=O)N1CCC[C@H]1C(=O)N1CCC[C@H]1C(=O)N[C@H](C(=O)N[C@@H](CC(N)=O)C(=O)N[C@H](C(=O)NCC(=O)N[C@@H](CO)C(=O)N[C@@H](CC(N)=O)C(=O)N[C@H](C(=O)N[C@@H](Cc1ccc(O)cc1)C(N)=O)[C@@H](C)O)C(C)C)[C@@H](C)O [Example 25, N-alpha-[(S)-4-Carboxy-4-(19-carboxynonadecanoylamino)butyryl]-Glu-[Arg1,Glu14,His17]-pramlintide] ({C20 diacid-γGlu}-ERCNTATCATQRLAEFLHHSSNNFGPILPPTNVGSNTY-NH2; disulfide 3-8 (inferred))
0.0735 | 2.7 | 193 (≈ 815 µg/mL) | > 200 | > 200 | > 200 | > 200 | > 200 | > 200 | > 200 | > 200 | > 200 | 0.088 |  |  |  |  |  |  | CC[C@H](C)[C@H](NC(=O)[C@@H]1CCCN1C(=O)CNC(=O)[C@H](Cc1ccccc1)NC(=O)[C@H](CC(N)=O)NC(=O)[C@H](CC(N)=O)NC(=O)[C@H](CO)NC(=O)[C@H](CO)NC(=O)[C@H](Cc1c[nH]cn1)NC(=O)[C@@H](NC(=O)[C@H](CC(C)C)NC(=O)[C@H](Cc1ccccc1)NC(=O)[C@H](CCC(=O)O)NC(=O)[C@H](C)NC(=O)[C@H](CC(C)C)NC(=O)[C@H](CCCNC(=N)N)NC(=O)[C@H](CCC(N)=O)NC(=O)[C@@H](NC(=O)[C@H](C)NC(=O)[C@@H]1CSSC[C@H](NC(=O)CC[C@H](NC(=O)CCCCCCCCCCCCCCCCCCC(=O)O)C(=O)O)C(=O)N[C@@H](CC(N)=O)C(=O)N[C@@H]([C@@H](C)O)C(=O)N[C@@H](C)C(=O)N[C@@H]([C@@H](C)O)C(=O)N1)[C@@H](C)O)C(C)C)C(=O)N[C@@H](CC(C)C)C(=O)N1CCC[C@H]1C(=O)N1CCC[C@H]1C(=O)N[C@H](C(=O)N[C@@H](CC(N)=O)C(=O)N[C@H](C(=O)NCC(=O)N[C@@H](CO)C(=O)N[C@@H](CC(N)=O)C(=O)N[C@H](C(=O)N1CCC[C@H]1C(N)=O)[C@@H](C)O)C(C)C)[C@@H](C)O [Example 108, N-alpha-[(S)-4-Carboxy-4-(19-carboxynonadecanoylamino)butyryl]-[des1,Glu14,Pro37]-pramlintide] ({C20 diacid-γGlu}-CNTATCATQRLAEFLVHSSNNFGPILPPTNVGSNTP-NH2; disulfide 1-6 (inferred))
0.191 | 1.3 | > 200 | 14 (≈ 66.9 µg/mL) |  |  | 2 (≈ 9.56 µg/mL) | 60 (≈ 287 µg/mL) | > 200 | > 200 | > 200 | > 200 | 0.167 |  |  |  |  |  |  | CC[C@H](C)[C@H](NC(=O)[C@@H]1CCCN1C(=O)CNC(=O)[C@H](Cc1ccccc1)NC(=O)[C@H](CC(N)=O)NC(=O)[C@H](CC(N)=O)NC(=O)[C@H](CO)NC(=O)[C@H](CO)NC(=O)[C@H](Cc1c[nH]cn1)NC(=O)[C@H](Cc1c[nH]cn1)NC(=O)[C@H](CC(C)C)NC(=O)[C@H](Cc1ccccc1)NC(=O)[C@H](CCC(=O)O)NC(=O)[C@H](C)NC(=O)[C@H](CC(C)C)NC(=O)[C@H](CCCNC(=N)N)NC(=O)[C@H](CCC(N)=O)NC(=O)[C@@H](NC(=O)[C@H](C)NC(=O)[C@@H]1CSSC[C@H](NC(=O)[C@H](Cc2c[nH]cn2)NC(=O)[C@H](Cc2c[nH]cn2)NC(=O)[C@H](Cc2c[nH]cn2)NC(=O)CC[C@H](NC(=O)CCCCCCCCCCCCCCCCCCC(=O)O)C(=O)O)C(=O)N[C@@H](CC(N)=O)C(=O)N[C@@H]([C@@H](C)O)C(=O)N[C@@H](C)C(=O)N[C@@H]([C@@H](C)O)C(=O)N1)[C@@H](C)O)C(=O)N[C@@H](CC(C)C)C(=O)N1CCC[C@H]1C(=O)N[C@@H](Cc1c[nH]cn1)C(=O)N[C@H](C(=O)N[C@@H](CC(N)=O)C(=O)N[C@H](C(=O)NCC(=O)N[C@@H](CO)C(=O)N[C@@H](CC(N)=O)C(=O)N[C@H](C(=O)N[C@@H](Cc1ccc(O)cc1)C(N)=O)[C@@H](C)O)C(C)C)[C@@H](C)O [Example 36, N-alpha-[(S)-4-Carboxy-4-(19-carboxynonadecanoylamino)butyryl]-His-His-[His1,Glu14,His17,His29]-pramlintide] ({C20 diacid-γGlu}-HHHCNTATCATQRLAEFLHHSSNNFGPILPHTNVGSNTY-NH2; disulfide 4-9 (inferred))
0.13 | >45 | > 200 | > 200 | > 200 | > 200 | 188 (≈ 840 µg/mL) | 124 (≈ 554 µg/mL) | > 200 | > 200 | > 200 | > 200 | 0.134 | >45 | >45 | >45 | > 200 | > 200 | 188 (≈ 840 µg/mL) | CC[C@H](C)[C@H](NC(=O)[C@@H]1CCCN1C(=O)CNC(=O)[C@H](Cc1ccccc1)NC(=O)[C@H](CC(N)=O)NC(=O)[C@H](CC(N)=O)NC(=O)[C@H](CO)NC(=O)[C@H](CO)NC(=O)[C@H](Cc1c[nH]cn1)NC(=O)[C@H](Cc1c[nH]cn1)NC(=O)[C@H](CC(C)C)NC(=O)[C@H](Cc1ccccc1)NC(=O)[C@H](CCC(=O)O)NC(=O)[C@H](C)NC(=O)[C@H](CC(C)C)NC(=O)[C@H](CCCNC(=N)N)NC(=O)[C@H](CCC(N)=O)NC(=O)[C@@H](NC(=O)[C@H](C)NC(=O)[C@@H]1CSSC[C@H](NC(=O)[C@H](CCCCN)NC(=O)CC[C@H](NC(=O)CCCCCCCCCCCCCCCCCCC(=O)O)C(=O)O)C(=O)N[C@@H](CC(N)=O)C(=O)N[C@@H]([C@@H](C)O)C(=O)N[C@@H](C)C(=O)N[C@@H]([C@@H](C)O)C(=O)N1)[C@@H](C)O)C(=O)N[C@@H](CC(C)C)C(=O)N1CCC[C@H]1C(=O)N1CCC[C@H]1C(=O)N[C@H](C(=O)N[C@@H](CC(N)=O)C(=O)N[C@H](C(=O)NCC(=O)N[C@@H](CO)C(=O)N[C@@H](CCCCN)C(=O)N[C@H](C(=O)N[C@@H](Cc1ccc(O)cc1)C(N)=O)[C@@H](C)O)C(C)C)[C@@H](C)O [Example 113, N-alpha-[(S)-4-Carboxy-4-(19-carboxynonadecanoylamino)butyryl]-[Glu14,His17,Lys35]-pramlintide] ({C20 diacid-γGlu}-KCNTATCATQRLAEFLHHSSNNFGPILPPTNVGSKTY-NH2; disulfide 2-7 (inferred))
